Data reported in patent EP2276483B1, “SOLID FORMS COMPRISING (+)-2-[1-(3-ETHOXY-4-METHOXYPHENYL)-2-METHYLSULFONYLETHYL]-4-ACETYLAMINOISOINDOLINE-1,3-DIONE, COMPOSITIONS THEREOF, AND USES THEREOF” (CELGENE CORPORATION, priority 2008, dated 2009).
≈ marks a conversion by molar mass, not a printed value.

What was measured:
[1] = test system: PDE4 (from U937 cells); test: PDE4 (U937 cell-derived) enzyme assay; format: biochemical, human; settings: 1 µM cAMP
Procedure: PDE4 enzyme was purified from U937 human monocytic cells by gel filtration chromatography as previously described (Muller et al., 1998, Bioorg. & Med. Chem. Lett. 8:2669-2674). Phosphodiesterase reactions were carried out in 50 mM Tris HCl pH 7.5, 5 mM MgCl2, 1 µM cAMP, 10 nM [^3H]-cAMP for 30 min at 30°C, terminated by boiling, treated with 1 mg/ml snake venom, and separated using AG-1XS ion exchange resin (BioRad) as described (Muller et al., 1998, Bioorg. & Med. Chem. Lett. 8:2669-2674). Reactions consumed less than 15% of available substrate. Table 1. PDE Specificity

[2] = test system: bovine PDE1; test: PDE1 enzyme assay; format: biochemical; settings: for PDE Specificity Ratio PDE4/PDE1: from above data
[3] = biological target: human PDE2 (Homo sapiens, UniProt O00408); test: PDE2 enzyme assay; format: biochemical; settings: for PDE Specificity Ratio PDE4/PDE2: from above data
[4] = biological target: PDE3 from human platelets (Homo sapiens, UniProt Q14432); test: PDE3 enzyme assay; format: biochemical; settings: for PDE Specificity Ratio PDE4/PDE3: from above data
[5] = biological target: T1, PDE5 from human platelets (Homo sapiens, UniProt O76074); test: PDE5 enzyme assay; format: biochemical; settings: for PDE Specificity Ratio PDE4/PDE5: from above data
T1 construct: PDE5 from human platelets; from tissue; host or cells: human platelets

[6] = biological target: PDE7 purified from Hut78 human T cells (Homo sapiens, UniProt Q13946); test: PDE7 enzyme assay; format: biochemical
Procedure: PDE7 is a cAMP-selective PDE expressed mainly in T cells and in skeletal muscle. T cell-derived cytokines such as IL-2 and IFN-γ are potentially regulatable via PDE7 inhibition. […] Compounds were tested against the PDE7 preparation in the presence of 10 nM cAMP as described for PDE4 in Table 1.

[7] = test system: cAMP; test: PGE2-induced cAMP elevation in human PBMC; format: cell-based; settings: PGE2 (10µM)
Procedure: (§1) Prostaglandin E2 (PGE2) binds to prostanoid receptors on monocytes, T cells and other leukocytes and consequently elevates intracellular cAMP levels, resulting in inhibition of cellular responses. The combination of PGE2 and a PDE4 inhibitor synergistically elevates cAMP levels in these cell types, and the elevation of cAMP in PBMC caused by PDE4 inhibitors in the presence of PGE2 is proportional to the inhibitory activity of that PDE4 inhibitor. Intracellular cAMP was measured in human PBMC as follows. PBMC were isolated as described above and plated in 96-well plates at 1 x 10^6 cells per well in RPMI-1640. The cells were pre-treated with compounds at 100, 10, 1, 0.1, 0.01, and 0 µM in a final concentration of 2% DMSO in duplicate at 37°C in a humidified incubator at 5% CO2 for one hour. The cells were then stimulated with PGE2 (10µM) (Sigma) for 1h. The cells were lysed with HCl, 0.1 N final concentration to inhibit phosphodiesterase activity and the plates were frozen at -20°C. The cAMP produced was measured using cAMP (low pH) Immunoassay kit (R&D Systems).

[8] = test system: cAMP; test: PGE2-induced cAMP elevation in human neutrophils; format: cell-based; settings: Neutrophil
Procedure: as §1
Elevation of cAMP in human neutrophils was measured as follows. PBMC were removed from source leukocytes (Sera-Tec Biologicals) by centrifugation on Ficoll-Paque Plus (Amersham Pharmacia). […]

[9] = test system: LTB4; test: fMLF-induced LTB4 production in neutrophils; format: cell-based; settings: Neutrophil; human neutrophils; 1 µM fMLF
Procedure: N-formyl-methionine-leucine-phenylalanine (fMLF) is a bacterially derived peptide that activates neutrophils to rapidly degranulate, migrate, adhere to endothelial cells, and release leukotriene LTB4, a product of arachidonic acid metabolism and itself a neutrophil chemoattractant. Compounds were tested for the ability to block fMLF-induced neutrophil LTB4 production as previously described (Hatzelmann and Schudt, 2001, J. Pharm. Exp. Ther., 297:267-279), with the following modifications. Neutrophils were isolated as described above and resuspended in phosphate-buffered saline without calcium or magnesium (BioWhittaker) containing 10 mM HEPES pH 7.2 and plated in 96-well tissue culture plates at a concentration of 1.7 x 10^6 cells/well. Cells were treated with 50 µM thimerosal (Sigma)/1 mM CaCl2/1 mM MgCl2 for 15 minutes at 37°C 5% CO2, then treated with compounds at 1000, 200, 40, 8, 1.6, 0.32, 0.064, and 0 nM in a final DMSO concentration of 0.01 % in duplicate for 10 minutes. Neutrophils were stimulated with 1 µM fMLF for 30 minutes, then lysed by the addition of methanol (20% final concentration) and frozen in a dry ice/isopropanol bath for 10 minutes. Lysates were stored at -70°C until the LTB4 content was measured by competitive LTB4 ELISA (R&D Systems).

[10] = Aqueous equilibrium solubility in pH 7.4 buffer; format: physicochemical; settings: thermodynamic from solid; pH 7.4 aqueous buffer, room temperature; read-out: Measured solubility
Procedure: Equilibrium solubilities were measured in pH 7.4 aqueous buffer. The pH 7.4 buffer was prepared by adjusting the pH of a 0.07 M NaH2PO4 solution to 7.4 with 10 N NaOH. The ionic strength of the solution was 0.15. At least 1 mg of powder was combined with 1 ml of buffer to make >1 mg/ml mixture. These samples were shaken for >2 hours and left to stand overnight at room temperature. The samples were then filtered through a 0.45-µm Nylon syringe filter that was first saturated with the sample. The filtrate was sampled twice, consecutively. The filtrate was assayed by HPLC against standards prepared in 50% methanol.

[11] = biological target: T2, PDE6 from bovine retinal rod outer segments (Bos taurus, UniProt P11541+P23439); test: PDE6 enzyme assay; format: biochemical
T2 construct: PDE6 from bovine retinal rod outer segments; from tissue; host or cells: bovine retinal rod outer segments
T2 sequence (P11541 2-856 limits assumed): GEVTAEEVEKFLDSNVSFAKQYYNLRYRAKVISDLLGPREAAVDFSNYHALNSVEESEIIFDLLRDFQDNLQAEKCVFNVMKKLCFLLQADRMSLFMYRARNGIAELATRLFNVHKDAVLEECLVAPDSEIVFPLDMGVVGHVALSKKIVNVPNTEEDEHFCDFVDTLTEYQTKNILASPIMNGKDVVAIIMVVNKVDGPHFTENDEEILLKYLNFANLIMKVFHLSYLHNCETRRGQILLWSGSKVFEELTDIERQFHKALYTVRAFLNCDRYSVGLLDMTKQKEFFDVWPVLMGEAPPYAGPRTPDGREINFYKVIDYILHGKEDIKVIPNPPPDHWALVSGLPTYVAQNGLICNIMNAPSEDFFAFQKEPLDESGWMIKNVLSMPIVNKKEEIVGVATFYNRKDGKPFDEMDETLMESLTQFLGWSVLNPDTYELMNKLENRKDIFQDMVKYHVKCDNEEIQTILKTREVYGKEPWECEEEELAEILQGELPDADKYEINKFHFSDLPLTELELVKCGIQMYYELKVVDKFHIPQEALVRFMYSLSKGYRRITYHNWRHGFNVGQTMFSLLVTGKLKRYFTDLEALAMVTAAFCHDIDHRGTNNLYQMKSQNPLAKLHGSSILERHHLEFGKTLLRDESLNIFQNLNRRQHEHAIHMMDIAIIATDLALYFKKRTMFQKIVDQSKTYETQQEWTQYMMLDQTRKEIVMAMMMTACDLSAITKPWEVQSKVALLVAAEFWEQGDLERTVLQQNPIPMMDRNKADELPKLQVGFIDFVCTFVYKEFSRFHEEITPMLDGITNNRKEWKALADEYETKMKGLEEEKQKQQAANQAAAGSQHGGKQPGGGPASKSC
T2 sequence (P23439 2-850 limits assumed): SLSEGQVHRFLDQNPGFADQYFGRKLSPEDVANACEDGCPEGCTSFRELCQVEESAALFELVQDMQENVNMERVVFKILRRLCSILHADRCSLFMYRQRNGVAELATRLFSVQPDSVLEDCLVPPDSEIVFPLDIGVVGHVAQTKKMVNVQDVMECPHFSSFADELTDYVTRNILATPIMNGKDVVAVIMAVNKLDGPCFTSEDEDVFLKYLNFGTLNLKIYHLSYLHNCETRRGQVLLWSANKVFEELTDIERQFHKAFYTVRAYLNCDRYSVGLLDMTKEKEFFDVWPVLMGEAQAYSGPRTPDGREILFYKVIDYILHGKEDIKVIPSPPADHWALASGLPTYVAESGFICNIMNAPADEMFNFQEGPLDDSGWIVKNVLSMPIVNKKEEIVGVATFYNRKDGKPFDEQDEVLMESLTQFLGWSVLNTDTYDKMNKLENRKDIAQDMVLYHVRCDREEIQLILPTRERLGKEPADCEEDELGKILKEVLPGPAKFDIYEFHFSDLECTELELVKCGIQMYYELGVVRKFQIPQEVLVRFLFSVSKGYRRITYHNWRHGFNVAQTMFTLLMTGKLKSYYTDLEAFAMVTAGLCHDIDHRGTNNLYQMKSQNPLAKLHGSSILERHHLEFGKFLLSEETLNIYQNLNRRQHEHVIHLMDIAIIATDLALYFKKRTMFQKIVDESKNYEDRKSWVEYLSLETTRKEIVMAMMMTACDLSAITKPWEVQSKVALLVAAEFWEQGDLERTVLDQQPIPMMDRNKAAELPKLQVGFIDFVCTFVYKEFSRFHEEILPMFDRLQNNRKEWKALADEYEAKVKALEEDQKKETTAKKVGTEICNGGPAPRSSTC

Chain of PDE3 from human platelets (Q14432 whole entry): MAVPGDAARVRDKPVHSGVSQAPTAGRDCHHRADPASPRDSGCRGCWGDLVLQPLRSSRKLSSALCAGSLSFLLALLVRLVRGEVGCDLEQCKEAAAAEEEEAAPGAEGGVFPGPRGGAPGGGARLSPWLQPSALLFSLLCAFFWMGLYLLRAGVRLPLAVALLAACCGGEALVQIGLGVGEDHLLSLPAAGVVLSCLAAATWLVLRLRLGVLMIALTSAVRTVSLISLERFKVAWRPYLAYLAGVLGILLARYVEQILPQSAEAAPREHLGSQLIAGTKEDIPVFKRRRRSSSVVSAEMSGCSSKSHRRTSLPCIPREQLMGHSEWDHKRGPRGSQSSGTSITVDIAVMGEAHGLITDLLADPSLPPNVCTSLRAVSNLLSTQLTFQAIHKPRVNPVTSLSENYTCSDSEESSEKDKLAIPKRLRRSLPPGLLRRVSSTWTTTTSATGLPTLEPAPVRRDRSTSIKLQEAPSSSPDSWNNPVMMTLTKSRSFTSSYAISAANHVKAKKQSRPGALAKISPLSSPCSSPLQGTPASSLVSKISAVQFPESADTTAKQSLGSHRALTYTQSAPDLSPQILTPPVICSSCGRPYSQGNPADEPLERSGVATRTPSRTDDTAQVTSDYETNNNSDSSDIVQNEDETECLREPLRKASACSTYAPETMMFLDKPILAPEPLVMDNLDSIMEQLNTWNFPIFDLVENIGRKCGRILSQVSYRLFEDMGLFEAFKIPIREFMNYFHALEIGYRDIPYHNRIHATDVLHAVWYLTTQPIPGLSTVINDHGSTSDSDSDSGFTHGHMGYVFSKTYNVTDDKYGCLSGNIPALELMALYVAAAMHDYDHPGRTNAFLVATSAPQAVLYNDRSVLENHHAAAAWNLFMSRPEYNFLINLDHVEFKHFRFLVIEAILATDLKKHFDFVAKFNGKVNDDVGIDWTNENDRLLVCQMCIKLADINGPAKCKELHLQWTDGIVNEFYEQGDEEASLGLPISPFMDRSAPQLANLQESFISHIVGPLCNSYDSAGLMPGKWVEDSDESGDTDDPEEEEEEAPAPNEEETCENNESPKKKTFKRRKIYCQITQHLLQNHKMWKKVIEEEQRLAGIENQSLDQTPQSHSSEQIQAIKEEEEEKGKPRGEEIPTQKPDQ
Chain of human PDE2 (O00408 whole entry): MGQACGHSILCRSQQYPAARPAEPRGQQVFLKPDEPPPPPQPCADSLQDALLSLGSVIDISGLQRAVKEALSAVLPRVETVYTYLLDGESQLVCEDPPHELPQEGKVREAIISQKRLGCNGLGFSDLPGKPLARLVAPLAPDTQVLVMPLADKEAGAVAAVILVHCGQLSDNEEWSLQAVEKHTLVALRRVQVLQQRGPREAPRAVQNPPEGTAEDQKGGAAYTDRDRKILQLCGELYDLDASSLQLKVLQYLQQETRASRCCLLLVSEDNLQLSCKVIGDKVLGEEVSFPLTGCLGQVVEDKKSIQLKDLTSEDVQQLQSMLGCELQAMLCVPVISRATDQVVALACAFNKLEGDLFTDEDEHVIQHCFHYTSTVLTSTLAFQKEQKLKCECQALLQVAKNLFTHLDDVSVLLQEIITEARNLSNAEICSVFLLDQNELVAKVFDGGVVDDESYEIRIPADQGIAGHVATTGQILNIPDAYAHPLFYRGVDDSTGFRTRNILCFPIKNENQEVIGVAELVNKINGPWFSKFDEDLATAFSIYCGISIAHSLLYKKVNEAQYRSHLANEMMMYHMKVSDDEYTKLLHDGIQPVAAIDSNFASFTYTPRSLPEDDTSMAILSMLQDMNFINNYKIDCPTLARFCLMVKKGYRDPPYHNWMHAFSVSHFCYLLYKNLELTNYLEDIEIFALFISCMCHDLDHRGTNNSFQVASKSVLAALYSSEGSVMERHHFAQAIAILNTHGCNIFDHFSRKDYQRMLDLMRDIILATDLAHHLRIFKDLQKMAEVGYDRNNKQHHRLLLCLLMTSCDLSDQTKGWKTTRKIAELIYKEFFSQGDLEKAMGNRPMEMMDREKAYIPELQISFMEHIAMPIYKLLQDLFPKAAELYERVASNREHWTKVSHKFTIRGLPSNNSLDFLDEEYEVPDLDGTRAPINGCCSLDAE
Chain of PDE7 purified from Hut78 human T cells (Q13946 whole entry): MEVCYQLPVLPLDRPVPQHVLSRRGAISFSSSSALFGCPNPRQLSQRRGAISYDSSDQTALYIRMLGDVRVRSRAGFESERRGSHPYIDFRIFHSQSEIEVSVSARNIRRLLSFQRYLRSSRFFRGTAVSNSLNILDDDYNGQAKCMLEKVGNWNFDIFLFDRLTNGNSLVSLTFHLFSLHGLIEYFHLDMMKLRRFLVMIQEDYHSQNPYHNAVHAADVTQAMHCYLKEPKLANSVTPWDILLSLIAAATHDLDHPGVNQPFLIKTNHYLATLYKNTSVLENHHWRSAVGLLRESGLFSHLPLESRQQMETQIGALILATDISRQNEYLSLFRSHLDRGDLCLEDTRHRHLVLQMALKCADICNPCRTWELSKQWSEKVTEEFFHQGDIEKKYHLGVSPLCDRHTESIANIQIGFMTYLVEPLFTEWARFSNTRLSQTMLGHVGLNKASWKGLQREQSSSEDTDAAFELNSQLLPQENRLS

## CCOc1cc(C(CS(C)(=O)=O)N2C(=O)c3cccc(NC(C)=O)c3C2=O)ccc1OC (racemic) [Racemic Compound, 2-[1-(3-Ethoxy-4-methoxyphenyl)-2-methylsulfonylethyl]-4-acetylaminoisoindoline-1,3-dione]
[1]
  IC50: 0.0818 µM
[2]
  PDE1 (% inhib at 10 µM): 9%
  PDE Specificity Ratio PDE4/PDE1: >2700 fold
[3]
  PDE Specificity Ratio PDE4/PDE2: >800 fold
[3]; read-out: PDE2(% inhib at 10 µM)
  inhibition at 10 µM: 19%
[4]
  PDE Specificity Ratio PDE4/PDE3: >670 fold
[4]; read-out: PDE3 (% inhib at 10 µM)
  inhibition at 10 µM: 21%
[5]
  PDE Specificity Ratio PDE4/PDE5: >12000 fold
[5]; read-out: PDE5 (% inhib at 10 µM)
  inhibition at 10 µM: 3%
[6]; 10 nM cAMP
  IC50: 22.1 µM
[6]; from above data
  PDE Specificity Ratio PDE7 IC50/PDE4 IC50: 270 fold
[7]
  EC50: 3.09 µM
[8]
  EC50: 12.6 µM
[9]
  IC50: 0.0201 µM
[10]
  solubility: 3.4 µg/mL (≈ 7.38 µM)

## CCOc1cc([C@H](CS(C)(=O)=O)N2C(=O)c3cccc(NC(C)=O)c3C2=O)ccc1OC [Compound B]
[1]
  IC50: 0.611 µM
[2]
  PDE1 (% inhib at 10 µM): 27%
  PDE Specificity Ratio PDE4/PDE1: >50 fold
[3]; 10 µM
  PDE2(% inhib at 10 µM): 10%
[3]
  PDE Specificity Ratio PDE4/PDE2: >260 fold
[4]; 10 µM
  PDE3 (% inhib at 10 µM): 31%
[4]
  PDE Specificity Ratio PDE4/PDE3: >45 fold
[5]; 10 µM
  PDE5 (% inhib at 10 µM): -9%
[5]
  PDE Specificity Ratio PDE4/PDE5: >39000 fold
[11]; 10 µM
  PDE6 (% inhib at 10 µM): 10%
[11]; from above data
  PDE Specificity Ratio PDE4/PDE6: >250 fold
